Measured values from patent US10233182B2, “Substituted spirocyclic inhibitors of autotaxin” (X-Rx, Inc., priority 2014, dated 2019).
Where a name gives a salt, the structure may show the parent alone.

Target: Autotaxin (Homo sapiens (Human), UniProt Q13822)
Test: Autotaxin LPC Cascade Assay
Type: biochemical
Settings: Autotaxin 5 nM, LPC 100 μM, choline oxidase/HRP/Ampliflu Red fluorescence read-out, 2% DMSO, RT; read-out: IC50 ATX Activity
Procedure, shortened: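 Choline liberated from LPC by autotaxin during 1 h, after a 10-min RT compound preincubation, was converted through choline oxidase/HRP to a fluorescent Ampliflu Red product.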

Structure (SMILES) | IC50 [µM]
CC(C)CCN1C(=O)N(C)C(=O)C12CCN(C(=O)[C@H](NC(=O)c1cc(C(F)(F)F)ccc1F)C(C)C)CC2 [Example 124, (R)-2-Fluoro-N-(1-(1-isopentyl-3-methyl-2,4-dioxo-1,3,8-triazaspiro[4.5]decan-8-yl)-3-methyl-1-oxobutan-2-yl)-5-(trifluoromethyl)benzamide] | < 0.5
CC(C)[C@@H](NC(=O)c1ccccn1)C(=O)N1CCC2(CC1)C(=O)N(C)C(=O)N2c1ccc2[nH]ncc2c1 [Example 228, (R)—N-(1-(1-(1H-Indazol-5-yl)-3-methyl-2,4-dioxo-1,3,8-triazaspiro[4.5]decan-8-yl)-3-methyl-1-oxobutan-2-yl)picolinamide] | ≥ 1
CC(C)[C@@H](NC(=O)c1cc(C(F)(F)F)ccc1F)C(=O)N1CCC2(CC1)C(=O)N(C)C(=O)N2c1ccc2nccn2c1 [Example 14, (R)-2-Fluoro-N-(1-(1-(imidazo[1,2-a]pyridin-6-yl)-3-methyl-2,4-dioxo-1,3,8-triazaspiro[4.5]decan-8-yl)-3-methyl-1-oxobutan-2-yl)-5-(trifluoromethyl)benzamide trifluoroacetic Acid Salt] | < 0.5
CC(C)[C@@H](NC(=O)c1cc(C(F)(F)F)ccc1F)C(=O)N1CCC2(CC1)C(=O)N(C)C(=O)N2c1cccnc1 [Example 189, (R)-2-Fluoro-N-(3-methyl-1-(3-methyl-2,4-dioxo-1-(pyridin-3-yl)-1,3,8-triaza-spiro[4.5]decan-8-yl)-1-oxobutan-2-yl)-5-(trifluoromethyl)benzamide] | 0.5 to 1
CC(C)[C@@H](NC(=O)c1cc(C(F)(F)F)ccc1F)C(=O)N1CCC2(CC1)C(=O)N(C)C(=O)N2c1ccc2c(c1)OCO2 [Example 191, (R)—N-(1-(1-(Benzo[d][1,3]dioxol-5-yl)-3-methyl-2,4-dioxo-1,3,8-triazaspiro[4.5]decan-8-yl)-3-methyl-1-oxobutan-2-yl)-2-fluoro-5-(trifluoromethyl)benzamide] | < 0.5
CC(C)[C@@H](NC(=O)c1cc(C(F)(F)F)ccc1F)C(=O)N1CCC2(CC1)C(=O)N(C)C(=O)N2Cc1ccccc1 [Example 89, (R)—N-(1-(1-Benzyl-3-methyl-2,4-dioxo-1,3,8-triazaspiro[4.5]decan-8-yl)-3-methyl-1-oxobutan-2-yl)-2-fluoro-5-(trifluoromethyl)benzamide] | < 0.5
CC(C)[C@@H](NC(=O)c1cc(C(F)(F)F)ccc1F)C(=O)N1CCC2(CC1)C(=O)N(C)C(=O)N2c1ccc2c(cnn2C)c1 [Example 12, (R)-2-Fluoro-N-(3-methyl-1-(3-methyl-1-(1-methyl-1H-indazol-5-yl)-2,4-dioxo-1,3,8-triazaspiro[4.5]decan-8-yl)-1-oxobutan-2-yl)-5-(trifluoromethyl)benzamide] | < 0.5
Cc1cccc(C(=O)N[C@@H](C(=O)N2CCC3(CC2)C(=O)N(C)CN3c2cccc(B(O)O)c2)C(C)C)c1F [Example 148, (R)-3-(8-(2-(2-Fluoro-3-methylbenzamido)-3-methylbutanoyl)-3-methyl-4-oxo-1,3,8-triazaspiro[4.5]decan-1-yl)phenylboronic Acid] | ≥ 1
CCc1ccc(F)c(C(=O)N[C@@H](C(=O)N2CCC3(CC2)C(=O)N(C)[C@@H](C)N3c2ccc(C(=O)O)cc2)C(C)C)c1 (single isomer, unassigned) [Example 211] | < 0.5
CC(C)[C@@H](NC(=O)c1cc(C(F)(F)F)ccc1F)C(=O)N1CCC2(CC1)C(=O)N(C)C(=O)N2Cc1ccnc(C#N)c1 [Example 113] | ≥ 1
CC(C)[C@@H](NC(=O)c1ccccc1)C(=O)N1CCC2(CC1)C(=O)N(C)C(=O)N2c1ccc2[nH]ncc2c1 [Example 233, (R)—N-(1-(1-(1H-Indazol-5-yl)-3-methyl-2,4-dioxo-1,3,8-triazaspiro[4.5]decan-8-yl)-3-methyl-1-oxobutan-2-yl)benzamide] | ≥ 1
Cc1ccc(N2C(=O)N(C)C(=O)C23CCN(C(=O)[C@H](NC(=O)c2cc(C(F)(F)F)ccc2F)C(C)C)CC3)cc1 [Example 184, (R)-2-Fluoro-N-(3-methyl-1-(3-methyl-2,4-dioxo-1-p-tolyl-1,3,8-triazaspiro[4.5]decan-8-yl)-1-oxobutan-2-yl)-5-(trifluoromethyl)benzamide] | < 0.5
CC(C)[C@@H](NC(=O)c1cc(C(F)(F)F)ccc1F)C(=O)N1CCC2(CC1)C(=O)N(C)C(=O)N2c1cccc(Cl)c1 [Example 187, (R)—N-(1-(1-(3-Chlorophenyl)-3-methyl-2,4-dioxo-1,3,8-triazaspiro[4.5]decan-8-yl)-3-methyl-1-oxobutan-2-yl)-2-fluoro-5-(trifluoromethyl)benzamide] | < 0.5
CCc1ccc(F)c(C(=O)N[C@@H](C(=O)N2CCC3(CC2)C(=O)N(C)C(=O)N3c2ccccc2)C(C)C)c1 [Example 39, (R)-5-Ethyl-2-fluoro-N-(3-methyl-1-(3-methyl-2,4-dioxo-1-phenyl-1,3,8-triazaspiro[4.5]decan-8-yl)-1-oxobutan-2-yl)benzamide] | < 0.5
CC(C)[C@@H](NC(=O)c1cc(OC(F)(F)F)ccc1F)C(=O)N1CCC2(CC1)C(=O)N(C)C(=O)N2c1ccc2[nH]ncc2c1 [Example 62, (R)—N-(1-(1-(1H-Indazol-5-yl)-3-methyl-2,4-dioxo-1,3,8-triazaspiro[4.5]decan-8-yl)-3-methyl-1-oxobutan-2-yl)-2-fluoro-5-(trifluoromethoxy)benzamide] | < 0.5
COc1ccc(CN2C(=O)N(C)C(=O)C23CCN(C(=O)[C@H](NC(=O)c2cc(C(F)(F)F)ccc2F)C(C)C)CC3)cc1 [Example 91, (R)-2-Fluoro-N-(1-(1-(4-methoxybenzyl)-3-methyl-2,4-dioxo-1,3,8-triazaspiro[4.5]decan-8-yl)-3-methyl-1-oxobutan-2-yl)-5-(trifluoromethyl)benzamide] | < 0.5
CCc1ccc(F)c(C(=O)N[C@@H](C(=O)N2CCC3(CC2)C(=O)N(C)C(=O)N3c2ccc3cnc(C)n3c2)C(C)C)c1 [Example 18, (R)-5-Ethyl-2-fluoro-N-(3-methyl-1-(3-methyl-1-(3-methylimidazo[1,5-a]pyridin-6-yl)-2,4-dioxo-1,3,8-triazaspiro[4.5]decan-8-yl)-1-oxobutan-2-yl)benzamide] | < 0.5
CC(C)[C@@H](NC(=O)c1cc(C(F)(F)F)ccc1F)C(=O)N1CCC2(CC1)C(=O)N(C)C(=O)N2c1ccccc1 [Example 44, (R)-2-Fluoro-N-(3-methyl-1-(3-methyl-2,4-dioxo-1-phenyl-1,3,8-triazaspiro[4.5]decan-8-yl)-1-oxobutan-2-yl)-5-(trifluoromethyl)benzamide] | < 0.5
COc1ccc(N2C(=O)N(C)C(=O)C23CCN(C(=O)[C@H](NC(=O)c2cc(C(F)(F)F)ccc2F)C(C)C)CC3)cn1 [Example 25, (R)-2-Fluoro-N-(1-(1-(6-methoxypyridin-3-yl)-3-methyl-2,4-dioxo-1,3,8-triazaspiro[4.5]decan-8-yl)-3-methyl-1-oxobutan-2-yl)-5-(trifluoromethyl)benzamide] | < 0.5
CC(C)[C@@H](NC(=O)c1cc(C(F)(F)F)ccc1F)C(=O)N1CCC2(CC1)C(=O)N(C)C(=O)N2c1ccc(Cl)c(Cl)c1 [Example 183, (R)—N-(1-(1-(3,4-Dichlorophenyl)-3-methyl-2,4-dioxo-1,3,8-triazaspiro[4.5]decan-8-yl)-3-methyl-1-oxobutan-2-yl)-2-fluoro-5-(trifluoromethyl)benzamide] | < 0.5
CCc1ccc(F)c(C(=O)N[C@@H](C(=O)N2CCC3(CC2)C(=O)N(C)CN3c2ccc3oc(=O)n(C)c3c2)C(C)C)c1 [Example 203, (R)-5-Ethyl-2-fluoro-N-(3-methyl-1-(3-methyl-1-(3-methyl-2-oxo-2,3-dihydrobenzo[d]oxazol-5-yl)-4-oxo-1,3,8-triazaspiro[4.5]decan-8-yl)-1-oxobutan-2-yl)benzamide] | < 0.5
COC(=O)Nc1ccc(N2CN(C)C(=O)C23CCN(C(=O)[C@H](NC(=O)c2cc(C(F)(F)F)ccc2F)C(C)C)CC3)cc1 [Example 175, (R)-Methyl-4-(8-(2-(2-fluoro-5-(trifluoromethyl)benzamido)-3-methylbutanoyl)-3-methyl-4-oxo-1,3,8-triazaspiro[4.5]decan-1-yl)phenylcarbamate] | < 0.5
CC(C)[C@@H](NC(=O)c1cc(C(F)(F)F)ccc1F)C(=O)N1CCC2(CC1)C(=O)N(C)C(=O)N2Cc1cccc(S(C)(=O)=O)c1 [Example 103, (R)-2-Fluoro-N-(3-methyl-1-(3-methyl-1-(3-(methylsulfonyl)benzyl)-2,4-dioxo-1,3,8-triazaspiro[4.5]decan-8-yl)-1-oxobutan-2-yl)-5-(trifluoromethyl)benzamide] | 0.5 to 1
